Measured values: paper PMC3513391 (Biochemistry, 2012)

Columns and labels:
[1] = target: T1, Homoprotocatechuate 2,3-dioxygenase (FeHPCD), Y257F variant (Brevibacterium fuscum, UniProt Q45135, Y257F); experiment: UV-vis spectral change on anaerobic binding
[2] = target: Homoprotocatechuate 2,3-dioxygenase (FeHPCD) (Brevibacterium fuscum, UniProt Q45135); experiment: competition with 4NC by UV-vis; type: binding
[3] = target: T1, Homoprotocatechuate 2,3-dioxygenase (FeHPCD), Y257F variant; experiment: competition with 4NC by UV-vis; type: binding

**Q.** How did the Kd [1] turn out when `O=[N+]([O-])c1ccc(O)c(O)c1` [4NC, 4-nitrocatechol] was run?
**A.** Its Kd is ~5 µM.

**Q.** What does the source list for `O=C(O)Cc1ccc(O)c(O)c1` [HPCA, homoprotocatechuate]?
**A.** Kd [2]: < 5 µM; Kd [3]: < 5 µM
